Data reported in publication PMC6515519, “Structure–Activity Relationships of the Tetrapeptide Ac-His-Arg-(pI)DPhe-Tic-NH2 at the Mouse Melanocortin Receptors: Modification at the (pI)DPhe Position Leads to mMC3R Versus mMC4R Selective Ligands” (Molecules, 2019).
Entries after “also recorded” stand apart in the source; their conditions may differ. Where two headings read alike, the source gives them in different places. Non-standard residues stand in square brackets, D forms with d. Residues, ends and D or L forms follow the SMILES beside them. dPhe(4-CN) = N#Cc1ccc(C[C@@H](N)C(=O)O)cc1; dPhe(4-Me) = Cc1ccc(C[C@@H](N)C(=O)O)cc1; Tic = O=C(O)[C@@H]1Cc2ccccc2CN1

Key:
mMC1R = target: T1, mMC1R (Mus musculus, UniProt Q01727); experiment: AlphaScreen cAMP assay, agonist pharmacology in HEK293 cells stably expressing mMC1R; format: cell-based; settings: for EC50: AlphaScreen cAMP, HEK293, mean ± SEM, at least three experiments
T1 construct: expressed in transfected cells
Description: (§1) Peptides were synthesized manually with microwave irradiation using standard Fmoc synthesis techniques and purified using semi-preparative reverse-phase high-pressure liquid-chromatography (RP-HPLC). […] Agonist pharmacology was measured at the mMC3R, mMC4R, and mMC5R using a colorimetric β-galactosidase assay that measures cAMP production. Agonist pharmacology was assessed at the mMC1R using the Amplified Luminescent Proximity Homogenous Assay Screen (AlphaScreen, PerkinElmer), as previously described. The MC2R is only stimulated by ACTH, and was not examined in this study. For both assays, HEK293 cells stably expressing the mMCRs were used.
Peptide ligands were dissolved in DMSO at stock concentrations of 10^−2 M. To assess the pharmacological activity of the tetrapeptides at the mMC1R, HEK293 cells stably expressing the mMC1R were stimulated with the ligands using the cAMP AlphaScreen assay (PerkinElmer) according to the manufacturer’s instruction and as previously described.
Cells were dislodged with Versene (Gibco) at 37 °C, and 10,000 cells/well were plated in a 384-well plate (Optiplate) with freshly made stimulation buffer (Hank’s Balanced Salt Solution (HBSS, 1×), 0.5 mM 3-isobutyl-1-methylxanthine (IBMX), 5 mM HEPES, and 0.1% bovine serum albumin (BSA), pH = 7.4) with 0.5 μg anti-cAMP acceptor beads per well.
Plates were incubated for an additional 2 h in the dark. Post incubation, the plates were read by an EnSpire plate reader (PerkinElmer, Waltham, MA, USA).
(§2) The EC50 and pA2 values represent the mean of duplicate replicates performed in at least three independent experiments. The EC50 and pA2 values and their associated standard errors (SEM) were determined by fitting the data to a nonlinear least-squares analysis using the PRISM program (v4.0, GraphPad Inc., San Diego, CA, USA). The ligands were assayed as TFA salt and not corrected for peptide content.

mMC3R = target: T2, mMC3R (Mus musculus, UniProt P33033); experiment: β-galactosidase cAMP reporter assay, agonist pharmacology in HEK293 cells stably expressing mMC3R; format: cell-based; settings: for decreased agonist potency at the mMC3R compared to KNS2-22-4: ratio of EC50 to KNS2-22-4; for EC50: β-galactosidase cAMP, HEK293, mean ± SEM, apparent EC50 for partial agonists; for mMC3R percent maximal stimulation relative to NDP-MSH (partial agonist): relative to maximal NDP-MSH signal
T2 construct: expressed in transfected cells
Description: as §1
(§3) The peptide ligands were assessed for pharmacological activity at the mMC3R, mMC4R, and mMC5R using a β-galactosidase assay. Briefly, HEK293 cells stably expressing the MC3R, MC4R, or MC5R were plated into a 10 cm dish and grown to 40% confluency. The HEK293 cells were transfected with 4 µg of CRE/β-galactosidase using the calcium-phosphate method, as previously described. Cells (5000 to 15,000) were plated on collagen-treated Nunclon Delta Surface 96-well plates (Thermo Fisher Scientific) and incubated at 37 °C with 5% CO2. […] Plates were stored at −80 °C for up to two weeks.
(§4) Thawed plates were assessed for protein content and assayed for β-galactosidase activity. Relative protein concentration was determined by adding 10 µL of cell lysate to 200 µL of a 1:5 dilution of Bio Rad G250 protein dye in a 96-well plate.
as §2

mMC4R [1] = target: T3, mMC4R (Mus musculus, UniProt P56450); experiment: β-galactosidase cAMP reporter assay, agonist pharmacology in HEK293 cells stably expressing mMC4R; format: cell-based; settings: for mMC4R agonist activity: full agonist = >90% of maximal NDP-MSH signal, inactive = <20% at 100 µM
T3 construct: expressed in transfected cells
Description: as §1, §3, §4, §2

mMC5R = target: T4, mMC5R (Mus musculus, UniProt P41149); experiment: β-galactosidase cAMP reporter assay, agonist pharmacology in HEK293 cells stably expressing mMC5R; format: cell-based; settings: for EC50: β-galactosidase cAMP, HEK293, mean ± SEM, apparent EC50 for partial agonists
T4 construct: expressed in transfected cells
Description: as §1, §3, §4, §2

mMC4R [2] = target: T3, mMC4R; experiment: β-galactosidase cAMP reporter assay, antagonist Schild analysis with NDP-MSH as agonist; format: cell-based; settings: for mMC4R antagonist activity: Schild design, agonist NDP-MSH, in the concentrations assayed
Description: as §1, §3, §4, §2

MC3R = settings: previous studies; cited from earlier work
MC4R = settings: cited from earlier work
[3] = target: mouse melanocortin-1 receptor (mouse) (UniProt Q01727)
[4] = target: mouse melanocortin-3 receptor (mouse) (UniProt P33033)
[5] = target: mouse melanocortin-4 receptor (mouse) (UniProt P56450)
[6] = target: mouse melanocortin-5 receptor (mouse) (UniProt P41149)
[7] = relative to maximal NDP-MSH signal

T4 sequence (P41149 whole entry): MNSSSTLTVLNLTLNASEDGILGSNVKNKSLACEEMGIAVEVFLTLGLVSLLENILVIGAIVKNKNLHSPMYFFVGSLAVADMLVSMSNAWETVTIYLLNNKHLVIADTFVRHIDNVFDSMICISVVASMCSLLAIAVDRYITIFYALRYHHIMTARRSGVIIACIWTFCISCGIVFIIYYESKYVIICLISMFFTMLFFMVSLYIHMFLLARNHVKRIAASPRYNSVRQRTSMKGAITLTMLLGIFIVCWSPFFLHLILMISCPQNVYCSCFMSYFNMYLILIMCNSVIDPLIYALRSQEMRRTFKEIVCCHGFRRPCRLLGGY
T3 sequence (P56450 whole entry): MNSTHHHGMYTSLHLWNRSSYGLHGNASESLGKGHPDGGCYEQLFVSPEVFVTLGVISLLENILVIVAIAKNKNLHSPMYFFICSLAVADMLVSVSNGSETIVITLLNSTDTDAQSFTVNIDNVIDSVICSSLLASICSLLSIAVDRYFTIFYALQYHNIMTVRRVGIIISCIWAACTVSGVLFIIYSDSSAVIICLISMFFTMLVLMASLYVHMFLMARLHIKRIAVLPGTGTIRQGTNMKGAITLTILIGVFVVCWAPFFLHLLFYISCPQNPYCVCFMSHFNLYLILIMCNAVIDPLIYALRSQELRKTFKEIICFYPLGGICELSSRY
T1 sequence (Q01727 whole entry): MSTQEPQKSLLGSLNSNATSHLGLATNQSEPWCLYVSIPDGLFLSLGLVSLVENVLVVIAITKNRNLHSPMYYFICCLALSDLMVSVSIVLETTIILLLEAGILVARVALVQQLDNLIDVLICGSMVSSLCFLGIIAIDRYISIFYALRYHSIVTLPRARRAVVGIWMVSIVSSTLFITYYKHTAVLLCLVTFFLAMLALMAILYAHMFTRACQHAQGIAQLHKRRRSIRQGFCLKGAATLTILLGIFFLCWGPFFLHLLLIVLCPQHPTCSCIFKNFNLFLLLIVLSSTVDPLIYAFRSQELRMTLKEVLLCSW
T2 sequence (P33033 whole entry): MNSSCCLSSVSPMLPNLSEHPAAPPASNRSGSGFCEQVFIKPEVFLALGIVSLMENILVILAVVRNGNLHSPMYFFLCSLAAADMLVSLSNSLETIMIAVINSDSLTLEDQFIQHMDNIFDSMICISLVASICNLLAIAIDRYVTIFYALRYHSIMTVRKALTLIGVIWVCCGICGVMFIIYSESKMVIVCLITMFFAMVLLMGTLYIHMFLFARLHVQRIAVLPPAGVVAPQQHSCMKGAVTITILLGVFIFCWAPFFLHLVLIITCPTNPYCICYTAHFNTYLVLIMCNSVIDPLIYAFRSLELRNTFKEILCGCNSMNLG
mouse melanocortin-5 receptor (mouse), sequence (P41149 whole entry): as the sequence (P41149 whole entry) above
mouse melanocortin-4 receptor (mouse), sequence (P56450 whole entry): as the sequence (P56450 whole entry) above
mouse melanocortin-1 receptor (mouse), sequence (Q01727 whole entry): as the sequence (Q01727 whole entry) above
mouse melanocortin-3 receptor (mouse), sequence (P33033 whole entry): as the sequence (P33033 whole entry) above

CC(=O)N[C@@H](Cc1c[nH]cn1)C(=O)N[C@@H](CCCNC(=N)N)C(=O)N[C@H](Cc1ccc(C)cc1)C(=O)N1Cc2ccccc2C[C@H]1C(N)=O [KNS2-23-7, Ac-His-Arg-(pMe)DPhe-Tic-NH2] (Ac-HR[dPhe(4-Me)][Tic]-NH2)
EC50 (mMC1R): 1 ± 0.3 nM
potency increase at the mMC1R relative to Ac-His-DPhe-Arg-Trp-NH2 (mMC1R; compared with KNS2-153): ≥ 10 fold
decreased agonist potency at the mMC3R compared to KNS2-22-4 (mMC3R): 8 fold
EC50 (mMC3R): 110 ± 20 nM
EC50 (mMC4R [1]): 700 nM
mMC4R percent maximal stimulation relative to NDP-MSH (partial agonist) (mMC4R [1]; [7]): 50 % NDP
EC50 (mMC5R): 17 ± 4 nM

CC(=O)N[C@@H](Cc1c[nH]cn1)C(=O)N[C@@H](CCCNC(=N)N)C(=O)N[C@H](Cc1ccc(C#N)cc1)C(=O)N1Cc2ccccc2C[C@H]1C(N)=O [KNS2-23-8, Ac-His-Arg-(pCN)DPhe-Tic-NH2] (Ac-HR[dPhe(4-CN)][Tic]-NH2)
EC50 (mMC1R): 27 ± 6 nM
mMC3R percent maximal stimulation relative to NDP-MSH (partial agonist) (mMC3R): 75 % NDP
EC50 (mMC3R): 4000 nM
Kb (mMC4R [2]): > 3160 nM
mMC4R antagonist activity (mMC4R [2]): did not result in antagonist activity
EC50 (mMC5R): 500 ± 100 nM

CC(=O)N[C@@H](Cc1c[nH]cn1)C(=O)N[C@@H](CCCNC(=N)N)C(=O)N[C@H](Cc1ccc(O)cc1)C(=O)N1Cc2ccccc2C[C@H]1C(N)=O [KNS2-23-9, Ac-His-Arg-DTyr-Tic-NH2] (Ac-HR[dY][Tic]-NH2)
EC50 (mMC1R): 40 ± 10 nM
mMC3R percent maximal stimulation relative to NDP-MSH (partial agonist) (mMC3R): 85 % NDP
EC50 (mMC3R): 4200 nM
EC50 (mMC4R [1]): > 100000 nM
mMC4R agonist activity (mMC4R [1]): did not possess agonist or antagonist activity
mMC4R antagonist activity (mMC4R [2]): did not possess agonist or antagonist activity
Kb (mMC4R [2]; read-out: mMC4R pA2 (converted)): > 3160 nM
EC50 (mMC5R): 1000 ± 500 nM

CC(=O)N[C@@H](Cc1c[nH]cn1)C(=O)N[C@@H](CCCNC(=N)N)C(=O)N[C@H](Cc1ccccc1)C(=O)N1Cc2ccccc2C[C@H]1C(N)=O [KNS3-10, Ac-His-Arg-DPhe-Tic-NH2] (Ac-HR[dF][Tic]-NH2)
EC50 (mMC1R): 4.6 ± 0.4 nM
decreased agonist potency at the mMC1R compared to KNS2-22-4 (mMC1R; ratio of EC50 to KNS2-22-4): 6 fold
decreased agonist potency at the mMC3R compared to KNS2-22-4 (mMC3R): 70 fold
mMC3R percent maximal stimulation relative to NDP-MSH (partial agonist) (mMC3R): 85 % NDP
EC50 (mMC3R): 900 nM
EC50 (mMC4R [1]): 3000 ± 2000 nM
mMC4R agonist activity (mMC4R [1]): full agonist efficacy; also recorded: Full agonism
mMC5R agonist efficacy (mMC5R; full agonist = >90% of maximal NDP-MSH signal): not a full agonist
decreased agonist potency at the mMC5R compared to KNS2-22-4 (mMC5R; ratio of EC50 to KNS2-22-4): 5 fold
mMC5R percent maximal stimulation relative to NDP-MSH (partial agonist) (mMC5R; [7]): 65 % NDP
EC50 (mMC5R): 200 nM

Ac-His-(pI)DPhe-Arg-Trp-NH2
MC3R activity (MC3R): partial agonist with antagonist activity
MC4R agonist activity (MC4R; previous studies): full agonist

Ac-Val-Gln-(pI)DPhe-DTic-NH2
MC4R efficacy relative to NDP-MSH (MC4R; partial stimulation, % efficacy of NDP-MSH): less than 50%

NDP-MSH (peptide)
agonist EC50, cAMP AlphaScreen assay in HEK293 cells stably expressing mMC1R [3]: 0.009 nM
agonist EC50, β-galactosidase cAMP reporter assay in HEK293 cells stably expressing mMC3R [4]: 0.52 nM
agonist EC50, β-galactosidase cAMP reporter assay in HEK293 cells stably expressing mMC4R [5]: 0.32 nM
agonist EC50, β-galactosidase cAMP reporter assay in HEK293 cells stably expressing mMC5R [6]: 3.4 nM
